From US10542757B2, “Compositions comprising a biological control agent and an insecticide” (priority 2012, dated 2020) come the findings set out here.

Common to all, as to type: in vivo
Assay [1] has as its system larvae of the diamondback moth (Plutella xylostella). The experiment in a line: Plutella xylostella spray test. As to conditions: mortality, cabbage leaves sprayed, 0.05 ppm. As for the experimental part:
(§1) For all examples efficiencies of the compositions comprising at least one BCA and at least one specific insecticide has been determined by the “Colby-formula”: The expected efficacy of a given combination of two compounds is calculated as follows (see Colby, S. R., “Calculating Synergistic and antagonistic Responses of Herbicide Combinations”, Weeds 15, pp. 20-22, 1967):
(§2) • X is the efficacy expressed in % mortality of the untreated control for test compound A at a concentration of m ppm respectively m g/ha, • Y is the efficacy expressed in % mortality of the untreated control for test compound B at a concentration of n ppm respectively n g/ha, • E is the efficacy expressed in % mortality of the untreated control using the mixture of A and B at m and n ppm respectively m and n g/ha, then
(§3) If the observed insecticidal efficacy of the combination is higher than the one calculated as “E”, then the combination of the two compounds is more than additive, i.e., there is a synergistic effect.
(§4) To produce a suitable preparation of active compound, 1 part by weight of active compound is mixed with the stated amount of solvent and emulsifier, and the concentrate is diluted with emulsifier-containing water to the desired concentration. […]
After the specified period of time, the mortality in % is determined. […] The mortality values determined thus are recalculated using the Colby-formula (see above).

Assay [2] has as its system mustard beetle larvae (Phaedon cochleariae). As to the kind of experiment: Phaedon cochleariae spray test. As to conditions: mortality, Chinese cabbage leaf-disks sprayed. As to the method:
as §1, §2, §3
(§5) To produce a suitable preparation of active compound, 1 part by weight of active compound is mixed with the stated amount of solvent and emulsifier, and the concentrate is diluted with emulsifier-containing water to the desired concentration. To produce a suitable preparation of a spore suspension the spores are diluted with emulsifier-containing water to the desired concentration.
Chinese cabbage (Brassica pekinensis) leaf-disks are sprayed with a preparation of the active ingredient of the desired concentration. Once dry, the leaf disks are infested with mustard beetle larvae (Phaedon cochleariae).
After the specified period of time, mortality in % is determined. 100% means all beetle larvae have been killed and 0% means none of the beetle larvae have been killed. The mortality values determined thus are recalculated using the Colby-formula (see above).

For assay [3], the system named is green peach aphid (Myzus persicae). The experiment in a line: Myzus persicae spray test (MYZUPE). As to conditions: mortality, Chinese cabbage leaf-disks sprayed. As for the experimental part: as §1, §2, §3, §5
Chinese cabbage (Brassica pekinensis) leaf-disks infected with all instars of the green peach aphid (Myzus persicae), are sprayed with a preparation of the active ingredient of the desired concentration.
After the specified period of time, mortality in % is determined. 100% means all aphids have been killed; 0% means none of the aphids have been killed. The mortality values determined thus are recalculated using the Colby-formula (see above).

Assay [4] has as its system two spotted spidermite (Tetranychus urticae). The experiment in a line: Tetranychus urticae spray test, OP-resistant. As to conditions: mortality, French beans sprayed, 20 g ai/ha. As for the experimental part:
as §1, §2, §3, §4
(§6) After the specified period of time, mortality in % is determined. […] The mortality values determined thus are recalculated using the Colby-formula (see above).

Assay [5] has as its system fall armyworm larvae (Spodoptera frugiperda). The experiment in a line: Spodoptera frugiperda spray test. Particulars: mortality, maize leaf sections sprayed, 0.8 g ai/ha. As to the method: as §1, §2, §3
To produce a suitable preparation of the active compound, 1 part by weight of active compound is mixed with the stated amount of solvent and emulsifier, and the concentrate is diluted with emulsifier-containing water to the desired concentration. […]
as §6

Assay [6] relates to caterpillars of the beet army worm (Spodoptera exigua). The experiment in a line: Spodoptera exigua spray test. Particulars: mortality, cotton leaves sprayed, 0.1 ppm. As to the method:
as §1, §2, §3, §4, §6

Regarding `CNC(=O)c1cc(Cl)cc(C)c1NC(=O)c1cc(Br)nn1-c1ncccc1Cl` [Chlorantraniliprole (I231), Chlorantraniliprole], in assay [1], the “Efficacy in % after 3d” value is given as 30%. The “Efficacy in % after 6d” value in assay [2] (0.16 g ai/ha), in assay [2] (0.8 g ai/ha) and in assay [3] (4 g/ha) was 0% in each case.

As for `CNC(=O)c1cc(C#N)cc(C)c1NC(=O)c1cc(Br)nn1-c1ncccc1Cl` [Cyantraniliprole (I232), Cyantraniliprole], the “Efficacy in % after 6d” value amounted to 33% in assay [2] (0.8 g ai/ha), 0% in assay [3] (0.16 g/ha) and 0% in assay [4].

As to `Cc1cc(C(F)(C(F)(F)F)C(F)(F)F)ccc1NC(=O)c1cccc(I)c1C(=O)NC(C)(C)CS(C)(=O)=O` [Flubendiamide (I233), Flubendiamide], the “Efficacy in % after 2d” value in assay [5] (2 d) came to 0%; in assay [2] (100 g ai/ha, 2 d) it was 0%. Besides, the “Efficacy in % after 6d” value in assay [5] (6 d) and in assay [3] (100 g/ha) was 0% in each case. The “Efficacy in % after 3d” value in assay [6] was found to be 30%.
